From patent US6875760B2 (Novo Nordisk A/S, priority 1999, dated 2005)

Each compound was assayed against T1, human glucagon receptor (Homo sapiens, UniProt P47871) (assay: Glucagon Binding Assay (III)). Settings: BHK cell membranes, WGA SPA beads, 125I-glucagon; read-out: Glu Bd Assay (III) IC50.
T1 construct: expressed in transfected cells; host or cells: BHK (baby hamster kidney) cells
Summary of the method: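 Membranes from BHK cells transfected with the human receptor, prepared at 4 °C, were used in a WGA-bead scintillation proximity binding format. Plates were shaken for 4 hours, left to settle 8–48 hours and then counted. Non-specific binding was defined with 500 nM glucagon.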

T1 sequence (P47871 26-477): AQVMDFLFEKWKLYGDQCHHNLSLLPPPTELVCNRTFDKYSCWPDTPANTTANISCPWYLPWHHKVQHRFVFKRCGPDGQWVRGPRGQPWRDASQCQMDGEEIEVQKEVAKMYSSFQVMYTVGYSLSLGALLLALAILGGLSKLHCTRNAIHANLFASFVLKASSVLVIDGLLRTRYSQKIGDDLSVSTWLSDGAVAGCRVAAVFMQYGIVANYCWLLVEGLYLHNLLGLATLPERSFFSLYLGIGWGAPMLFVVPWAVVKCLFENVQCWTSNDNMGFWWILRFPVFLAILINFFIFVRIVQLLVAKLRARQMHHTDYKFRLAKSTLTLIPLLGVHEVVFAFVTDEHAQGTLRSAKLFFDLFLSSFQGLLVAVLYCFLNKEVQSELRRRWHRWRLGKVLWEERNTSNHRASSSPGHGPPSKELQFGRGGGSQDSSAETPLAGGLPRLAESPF

| IC50 | SMILES |
| --- | --- |
| 896 nM | O=C(O)CCNC(=O)c1ccc(CN(C(=O)c2ccc3c(c2)-c2ccccc2C3=O)c2ccc(C3CCCCC3)cc2)cc1 [Example 522, 3-(4-{[(4-Cyclohexylphenyl)-(9-oxo-9H-fluorene-3-carbonyl)amino]methyl}benzoylamino)propionic acid] |
| 38 nM | CSc1ccc(NC(=O)N(Cc2ccc(C(=O)Nc3nn[nH]n3)cc2)c2ccc(C3CCCCC3)cc2)cc1 [Example 298, 4-[1-(4-Cyclohexylphenyl)-3-(4-methylsulfanylphenyl)ureidomethyl]-N-(2H-tetrazol-5-yl)benzamide] |
| 1790 nM | CS(=O)(=O)c1cccc(NC(=O)N(Cc2ccc(C(=O)Nc3nn[nH]n3)cc2)c2ccc(OC(F)(F)F)cc2)c1 [Example 450, 4-[3-(3-Methylsulfonylphenyl)-1-(4-trifluoromethoxyphenyl)ureidomethyl]-N-(2H-tetrazol-5-yl)benzamide] |
| 547 nM | O=C(Nc1nn[nH]n1)c1ccc(CN(C(=O)Nc2cc(Cl)cc(Cl)c2)c2ccc(N3CCCCC3)cc2)cc1 [Example 316, 4-[3-(3,5-Dichlorophenyl)-1-(4-piperidin-1-ylphenyl)ureidomethyl]-N-(2H-tetrazol-5-yl)benzamide] |
| 119 nM | O=C(Nc1nn[nH]n1)c1ccc(CN(C(=O)Nc2cc(C(F)(F)F)ccc2C(F)(F)F)c2ccc(C3=CCCCC3)cc2)cc1 [Example 361, 4-[3-(2,5-Bis(trifluoromethyl)phenyl)-1-(4-cyclohex-1-enylphenyl)ureidomethyl]-N-(2H-tetrazol-5-yl)benzamide] |
| 252 nM | CCCCc1ccc(N(Cc2ccc(C(=O)Nc3nn[nH]n3)cc2)C(=O)Nc2ccccc2)cc1 [Example 280, 4-[1-(4-Butylphenyl)-3-phenylureidomethyl]-N-(2H-tetrazol-5-yl)benzamide] |
| 245 nM | CC(C)OC(=O)c1ccc(NC(=O)N(Cc2ccc(C(=O)NCCC(=O)O)cc2)C2CCC(C(C)(C)C)CC2)cc1 (stereo not drawn) [Example 73, 4-{3-(4-tert-Butylcyclohexyl)-3-[4-(2-carboxyethylcarbamoyl)benzyl]ureido}benzoic acid isopropyl ester] |
| 407 nM | O=C(O)CCNC(=O)c1ccc(CN(CC(c2ccccc2)c2ccccc2)C(=O)c2cc3cc(Cl)ccc3o2)cc1 [Example 563, 3-(4-{[(5-Chlorobenzofuran-2-carbonyl)-(2,2-diphenylethyl)amino]methyl}benzoylamino)propionic acid] |
| 49 nM | CCC(C)(C)[C@H]1CC[C@H](N(Cc2ccc(C(=O)NCCC(=O)O)cc2)C(=O)Nc2ccc(OC(F)(F)F)cc2)CC1 [Example 78, 3-{4-[1-[4-trans-(1,1-Dimethylpropyl)cyclohexyl]-3-(4-trifluoromethoxyphenyl)ureidomethyl]benzoylamino}propionic acid] |
| 22 nM | CC(NC(=O)N(Cc1ccc(C(=O)Nc2nn[nH]n2)cc1)c1ccc(C2CCCCC2)cc1)c1ccc(Cl)cc1 (single isomer, unassigned) [Example 337, 4-[3-[1-(4-Chlorophenyl)ethyl]-1-(4-Cyclohexylphenyl)ureidomethyl]-N-(2H-tetrazol-5-yl)benzamide] |
| 3450 nM | CS(=O)(=O)c1ccc(NC(=O)N(Cc2ccc(C(=O)Nc3nn[nH]n3)cc2)c2ccc(OC(F)(F)F)cc2)cc1 [Example 451, 4-[3-(4-Methylsulfonylphenyl)-1-(4-trifluoromethoxyphenyl)ureidomethyl]-N-(2H-tetrazol-5-yl)benzamide] |
| 124 nM | CC(C)(C)C1CCC(N(Cc2ccc(C(=O)NCCC(=O)O)cc2)C(=O)Nc2ccc(F)c(C(F)(F)F)c2)CC1 (stereo not drawn) [Example 71, 3-{4-[1-(4-tert-Butylcyclohexyl)-3-(4-fluoro-3-trifluoromethylphenyl)ureidomethyl]benzoylamino}propionic acid] |
| 214 nM | CCS(=O)(=O)c1cccc(NC(=O)N(Cc2ccc(C(=O)Nc3nn[nH]n3)cc2)c2ccc(C(C)(C)C)cc2)c1 [Example 454, 4-[1-(4-tert-Butylphenyl)-3-(3-ethylsulfonylphenyl)ureidomethyl]-N-(2H-tetrazol-5-yl)benzamide] |
| 36 nM | COC(=O)c1cc(-c2cccc(NC(=O)N(Cc3ccc(C(=O)NCCC(=O)O)cc3)[C@H]3CC[C@H](C4CCCCC4)CC3)c2)oc1C [Example 392, 5-(3-{3-(trans-4-Cyclohexylcyclohexyl)-3-[4-(2-carboxyethylcarbamoyl)benzyl]ureido}phenyl)-2-methylfuran-3-carboxylic acid methyl ester] |
| 313 nM | CN(C)S(=O)(=O)c1cccc(NC(=O)N(Cc2ccc(C(=O)Nc3nn[nH]n3)cc2)c2ccc(C(C)(C)C)cc2)c1 [Example 276, 4-[1-(4-tert-Butylphenyl)-3-(3-dimethylsulfamoylphenyl)ureidomethyl]-N-(2H-tetrazol-5-yl)benzamide] |
| 302 nM | Cc1ccc(S(C)(=O)=O)cc1NC(=O)N(Cc1ccc(C(=O)Nc2nn[nH]n2)cc1)c1ccc(C2CCCCC2)cc1 [Example 261, 4-[1-(4-Cyclohexylphenyl)-3-(5-methylsulfonyl-2-methylphenyl)ureidomethyl]-N-(2H-tetrazol-5-yl)benzamide] |
| 277 nM | CC(C)(C)C1CCC(N(Cc2ccc(C(=O)Nc3nn[nH]n3)cc2)C(=O)NCCc2ccccc2)CC1 (stereo not drawn) [Example 324, 4-[1-(4-tert-Butylcyclohexyl)-3-phenethylureidomethyl]-N-(2H-tetrazol-5-yl)benzamide] |
| 11 nM | O=C(Nc1nn[nH]n1)c1ccc(CN(C(=O)NCc2ccccc2-c2ccccc2)c2ccc(C3CCCCC3)cc2)cc1 [Example 354, 4-[3-Biphenyl-2-ylmethyl-1-(4-cyclohexylphenyl)ureidomethyl]-N-(2H-tetrazol-5-yl)benzamide] |
| 631 nM | CS(=O)(=O)c1cccc(NC(=O)N(Cc2ccc(C(=O)NCCC(=O)O)cc2)c2ccc(C3CCCCC3)cc2)c1 [Example 469, 3-{4-[1-(4-Cyclohexylphenyl)-3-(3-methylsulfonylphenyl)ureidomethyl]benzoylamino}propionic acid] |
| 1470 nM | CC(C)Cc1ccc(C(=O)N(Cc2ccc(C(=O)Nc3nn[nH]n3)cc2)c2ccc(N3CCCCC3)cc2)cc1 [Example 518, 4-{[(4-Isobutylbenzoyl)-(4-piperidin-1-ylphenyl)amino]methyl}-N-(2H-tetrazol-5-yl)benzamide] |
| 171 nM | O=C(Nc1nn[nH]n1)c1ccc(CN(C(=O)Nc2cccc(SCC3CC3)c2)c2ccc(C3CCCCC3)cc2)cc1 [Example 299, 4-[1-(4-Cyclohexylphenyl)-3-(3-cyclopropylmethylsulfanylphenyl)ureidomethyl]-N-(2H-tetrazol-5-yl)benzamide] |
| 17 nM | O=C(Nc1nn[nH]n1)c1ccc(CN(C(=O)Nc2ccc(Br)c(C(F)(F)F)c2)c2ccc(C3=CCCCC3)cc2)cc1 [Example 601, 4-[3-(4-Bromo-3-trifluoromethylphenyl)-1-(4-cyclohex-1-enylphenyl)ureidomethyl]-N-(2H-tetrazol-5-yl)benzamide] |

| SMILES | IC50 |
| --- | --- |
| O=C(O)CCNC(=O)c1ccc(CN(C(=O)Oc2cc(Cl)cc(Cl)c2)c2ccc(C3CCCCC3)cc2)cc1 [Example 400, 3-(4-{[(4-Cyclohexylphenyl)-(3,5-dichlorophenoxycarbonyl)amino]methyl}benzoylamino)propionic acid] | 533 nM |
| O=C(O)CCNC(=O)c1ccc(CN(C(=O)Oc2cccc([N+](=O)[O-])c2)c2ccc(C3CCCCC3)cc2)cc1 [Example 414, 3-(4-{[(4-Cyclohexylphenyl)-(3-nitrophenoxycarbonyl)amino]methyl}benzoylamino)propionic acid] | 934 nM |
